Test results taken from patent publication US9497963B2, “Methods and compositions for control of gypsy moth, Lymantria dispar” (Simon Fraser University, priority 2008, dated 2016).
Like-named read-outs stand apart in the source and are kept apart here.

Assays:
[1] = system: L. dispar PBP 1; experiment: Pheromone-binding protein (PBP) ligand binding assay, PBP1; design: species or system Lymantria dispar
Summary of the method: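 L. dispar PBP1 or PBP2 equilibrated overnight in buffer with test compound or mini-library; free ligand removed by size-exclusion chromatography on P2 gel. Total and protein-bound ligand extracted and quantified by GC-MS per component; % bound = 100×[PBP·L]/[L]tot.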

[2] = system: male gypsy moth antenna response to pheromone (+)-1; experiment: EAG short-term (STI) and long-term (LTI) inhibition of pheromone signaling (Example 5); design: species or system Lymantria dispar; settings: for inhibition at 0.001 mg / inhibition at 0.01 mg / inhibition at 0.1 mg / inhibition at 100 µg, 0.1 mg: Lymantria dispar, mean ± S.E.; for inhibition at 0.001 mg: mixed plume (+)-1 100 ng + compound 1 μg; for inhibition at 0.001 mg / inhibition at 0.01 mg / inhibition at 0.1 mg: negative = enhancement, read-out: Activity (%): short-term inhibition (STI); for inhibition at 0.01 mg: mixed plume (+)-1 100 ng + compound 10 μg; for inhibition at 0.1 mg: mixed plume (+)-1 100 ng + compound 100 μg (puff v); for inhibition at 100 µg, 0.1 mg: pure (+)-1 100 ng plume following mixed plume with 100 μg compound, read-out: Activity (%): long-term inhibition (LTI)
Summary of the method: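 Excised male gypsy moth antenna in saline pH 6.8 under purified air (300 mL/min); 0.3 s puffs: air, (+)-1 100 ng, (+)-1 plus compound 1, 10, 100 μg per cartridge, then (+)-1 alone. STI: mixed-puff air-corrected depolarization loss versus first pheromone puff; LTI: final pheromone-puff loss.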

[3] = member tested within library 3c{1, 1-5}
[4] = member tested within library 3c{3, 1-5}
[5] = tested as single compound, means ± S.E., 4 replicates
[6] = member tested within library 3c{2, 1-5}

## CCCOc1ccc(OC)cc1 [3c{1,3}, 1-methoxy-4-propoxy-benzene]
[1]; [3]
  PBP1 (% bound): 7 ± 0.5%
[1]; [4]
  PBP1 (% bound): 13 ± 0.3%
[2]
  inhibition at 0.001 mg: 28 ± 16%
  inhibition at 0.01 mg: -2 ± 5%
  inhibition at 0.1 mg: 48 ± 14%
  inhibition at 100 µg, 0.1 mg: 39 ± 12%

## CCCOc1ccc(OCCC)cc1 [3c{3,3}, 1,4-Dipropoxy benzene]
[1]; [4]
  PBP1 (% bound): 4 ± 0.3%
[1]; [5]
  PBP1 (% bound): 15 ± 0.7%
[2]
  inhibition at 0.001 mg: -3 ± 13%
  inhibition at 0.01 mg: -60 ± 38%
  inhibition at 0.1 mg: -100 ± 40%
  inhibition at 100 µg, 0.1 mg: 29 ± 13%

## COc1ccc(OC)cc1 [3c{1,1}, 1,4-Dimethoxy benzene]
[1]; [3]
  PBP1 (% bound): 24 ± 0.3%
[1]; [5]
  PBP1 (% bound): 40 ± 2.5%
[2]
  inhibition at 0.001 mg: 24 ± 8%
  inhibition at 0.01 mg: 23 ± 9%
  inhibition at 0.1 mg: 15 ± 25%
  inhibition at 100 µg, 0.1 mg: -7 ± 10%

## CC(C)CCOc1ccc(OCCC(C)C)cc1 [3c{5,5}, 1,4-Di-(3-methyl-butyloxy) benzene]
[1]; member tested within library 3c{5, 1-5}
  PBP1 (% bound): 5 ± 0.1%
[1]; [5]
  PBP1 (% bound): 9 ± 0.7%
[2]
  inhibition at 0.001 mg: 41 ± 14%
  inhibition at 0.01 mg: 4 ± 26%
  inhibition at 0.1 mg: 50 ± 9%
  inhibition at 100 µg, 0.1 mg: 7 ± 4%

## CCOc1ccc(OCC)cc1 [3c{2,2}, 1,4-Diethoxy benzene]
[1]; [6]
  PBP1 (% bound): 14 ± 0.5%
[1]; [5]
  PBP1 (% bound): 28 ± 0.1%
[2]
  inhibition at 0.001 mg: 7 ± 12%
  inhibition at 0.01 mg: -19 ± 8%
  inhibition at 0.1 mg: -27 ± 15%
  inhibition at 100 µg, 0.1 mg: 17 ± 11%

## CCCOc1ccc(OCC)cc1 [3c{2,3}, 1-ethoxy-4-propoxy benzene]
[1]; [6]
  PBP1 (% bound): 10 ± 0.3%
[1]; [4]
  PBP1 (% bound): 13 ± 0.3%
[2]
  long-term inhibition (LTI) activity (in words): strongest long-term inhibitor
  inhibition at 0.001 mg: 8 ± 20%
  inhibition at 0.01 mg: -30 ± 10%
  inhibition at 0.1 mg: -62 ± 50%
  inhibition at 100 µg, 0.1 mg: 58 ± 7%
[2]; listed as 3c{2, 3}
  long-term inhibition (LTI) activity (in words): most active
